Test results: PMC11403423 (iScience, 2024)
Each block holds one molecule with its values, some of them ahead of it.

Legend:
[1] = system: #1-LTL+ and #2-LTL+ PToCs; assay: Nephrotoxicity testing, LDH release; format: cell-based, human; conditions: for Effect on cisplatin-induced LDH release: cimetidine 10 mM, cisplatin 100 μM
#1-LTL+ PToC = assay: LIVE/DEAD cell viability assay; format: cell-based, human; conditions: cimetidine with cisplatin
OCT2 and MATE1 = assay: Transcellular transport assay of metformin in PToC, LC/MS
OAT3 = molecular target: T1, OAT3 (Homo sapiens, UniProt Q8TCC7); assay: Transcellular transport assay of OAT3 substrate
T1 sequence (Q8TCC7 1-542): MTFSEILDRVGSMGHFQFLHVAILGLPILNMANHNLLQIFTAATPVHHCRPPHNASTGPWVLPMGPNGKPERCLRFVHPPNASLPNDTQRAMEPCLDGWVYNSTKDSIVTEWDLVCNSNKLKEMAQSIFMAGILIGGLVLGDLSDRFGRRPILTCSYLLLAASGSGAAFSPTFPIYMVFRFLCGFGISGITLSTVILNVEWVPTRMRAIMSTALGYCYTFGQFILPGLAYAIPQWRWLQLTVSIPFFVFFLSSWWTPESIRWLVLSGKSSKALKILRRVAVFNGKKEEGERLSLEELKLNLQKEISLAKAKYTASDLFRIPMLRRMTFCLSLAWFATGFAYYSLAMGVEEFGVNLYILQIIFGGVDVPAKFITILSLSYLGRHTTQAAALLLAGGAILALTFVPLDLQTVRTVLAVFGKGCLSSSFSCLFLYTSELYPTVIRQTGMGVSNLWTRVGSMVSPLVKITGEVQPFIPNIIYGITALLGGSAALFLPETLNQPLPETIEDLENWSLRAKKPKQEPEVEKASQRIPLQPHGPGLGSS

OAT1 = molecular target: T2, OAT1 (Homo sapiens, UniProt Q4U2R8); assay: Transcellular transport assay of OAT1 substrates; conditions: 10 μM substrate; #1-LTL+ PToC
T2 sequence (Q4U2R8 1-563): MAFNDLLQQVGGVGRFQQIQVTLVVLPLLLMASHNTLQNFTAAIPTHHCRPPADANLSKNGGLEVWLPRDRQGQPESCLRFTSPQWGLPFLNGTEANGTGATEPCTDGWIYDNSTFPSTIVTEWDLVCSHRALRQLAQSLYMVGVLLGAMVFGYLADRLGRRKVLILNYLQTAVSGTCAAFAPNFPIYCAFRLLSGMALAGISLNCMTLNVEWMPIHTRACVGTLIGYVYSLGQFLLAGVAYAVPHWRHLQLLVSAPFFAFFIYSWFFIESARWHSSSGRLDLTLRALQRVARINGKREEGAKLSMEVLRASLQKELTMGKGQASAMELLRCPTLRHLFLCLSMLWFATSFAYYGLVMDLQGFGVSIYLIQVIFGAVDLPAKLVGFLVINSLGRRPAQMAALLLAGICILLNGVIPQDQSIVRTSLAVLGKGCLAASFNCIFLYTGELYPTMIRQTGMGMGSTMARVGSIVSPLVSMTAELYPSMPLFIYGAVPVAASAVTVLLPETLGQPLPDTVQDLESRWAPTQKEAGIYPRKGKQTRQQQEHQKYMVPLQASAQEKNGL

P-gp = P-gp (Homo sapiens, UniProt P08183); conditions: #2-LTL+ PToC
MRPs [2] = assay: Transcellular transport assay of OAT1/3 substrates with MK571 in #1-LTL+ PToC; conditions: 10 μM MK571
MRPs [3] = assay: Fluorescein uptake and transport with MK571 in #1-LTL+ PToC; format: cell-based, human
OAT1/3 [4] = assay: Transported fluorescein amount; format: in vitro ADME, human; conditions: plate reader; 30 min
OAT1/3 [5] = assay: Fluorescein uptake assay; format: cell-based, human; conditions: 2 μM fluorescein, 30 min

Sequence of P-gp (P08183 whole entry): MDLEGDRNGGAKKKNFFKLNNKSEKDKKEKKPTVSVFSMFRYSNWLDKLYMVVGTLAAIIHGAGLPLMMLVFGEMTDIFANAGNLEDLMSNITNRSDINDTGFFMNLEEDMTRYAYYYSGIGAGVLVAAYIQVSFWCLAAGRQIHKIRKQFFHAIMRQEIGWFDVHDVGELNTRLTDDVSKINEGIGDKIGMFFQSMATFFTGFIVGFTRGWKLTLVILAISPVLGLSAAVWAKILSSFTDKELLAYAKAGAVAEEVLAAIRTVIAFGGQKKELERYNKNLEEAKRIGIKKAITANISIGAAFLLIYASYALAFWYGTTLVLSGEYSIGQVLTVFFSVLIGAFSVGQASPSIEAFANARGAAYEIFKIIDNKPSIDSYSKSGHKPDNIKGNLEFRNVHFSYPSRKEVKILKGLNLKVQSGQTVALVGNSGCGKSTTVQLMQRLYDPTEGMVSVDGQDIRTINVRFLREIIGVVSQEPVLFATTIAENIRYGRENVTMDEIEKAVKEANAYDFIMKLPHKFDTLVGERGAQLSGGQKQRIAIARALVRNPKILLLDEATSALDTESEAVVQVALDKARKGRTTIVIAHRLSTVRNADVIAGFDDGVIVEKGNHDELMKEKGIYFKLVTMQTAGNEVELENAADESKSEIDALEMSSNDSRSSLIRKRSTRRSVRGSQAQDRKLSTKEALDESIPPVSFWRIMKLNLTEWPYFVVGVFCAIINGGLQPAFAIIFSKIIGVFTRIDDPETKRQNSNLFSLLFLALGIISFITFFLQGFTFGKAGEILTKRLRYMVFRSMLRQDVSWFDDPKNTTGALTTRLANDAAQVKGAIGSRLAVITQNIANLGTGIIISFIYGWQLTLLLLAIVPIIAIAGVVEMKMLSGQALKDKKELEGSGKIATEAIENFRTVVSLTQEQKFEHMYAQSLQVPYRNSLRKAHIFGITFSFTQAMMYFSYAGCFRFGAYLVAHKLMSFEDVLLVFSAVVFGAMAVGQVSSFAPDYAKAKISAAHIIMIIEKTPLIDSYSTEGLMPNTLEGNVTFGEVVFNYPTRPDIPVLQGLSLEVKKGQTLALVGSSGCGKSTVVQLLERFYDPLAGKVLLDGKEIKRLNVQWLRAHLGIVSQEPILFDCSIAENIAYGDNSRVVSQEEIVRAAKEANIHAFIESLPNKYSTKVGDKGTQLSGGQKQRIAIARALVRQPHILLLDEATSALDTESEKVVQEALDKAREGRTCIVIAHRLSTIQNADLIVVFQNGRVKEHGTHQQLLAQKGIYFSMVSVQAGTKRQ

- Difference in ER between #1-LTL+ and #2-LTL+ PToCs (OCT2 and MATE1): no significant differences
- Transcellular basal to apical (b → a) transport rate, comparison of PToCs (OCT2 and MATE1; #1-LTL+ PToC versus #2-LTL+ and RPTEC): highest transport rates
SMILES: CN(C)C(=N)N=C(N)N [metformin]

- Basal to apical (b → a) transport (Papp) in #1-LTL+ versus other PToC models (OAT3; 10 μM substrate, #1-LTL+ PToC): notably higher
SMILES: CC(C)c1nc(N(C)S(C)(=O)=O)nc(-c2ccc(F)cc2)c1/C=C/[C@@H](O)C[C@@H](O)CC(=O)O [rosuvastatin]

- Impact on rosuvastatin transport (OAT3; probenecid 100 μM, #1-LTL+ and #2-LTL+): minimal impact
SMILES: CCCN(CCC)S(=O)(=O)c1ccc(C(=O)O)cc1 [probenecid]

Continued, molecule first:

SMILES: COc1cccc2c1cc([N+](=O)[O-])c1c(C(=O)O)cc3c(c12)OCO3 [AA, Aristolochic acid I]
- Normalized LDH release in #1-LTL+ compared to #2-LTL+ ([1]; 50 μM, 24 h): markedly higher
- Normalized LDH release compared to control group without aristolochic acid ([1]; 50 μM, basal, 24 h, #1-LTL+ and #2-LTL+ PToCs): significantly higher

SMILES: CN/C(=N/CCSCc1nc[nH]c1C)NC#N [cimetidine]
- Effect on cisplatin-induced cell death (LIVE/DEAD) (#1-LTL+ PToC): reduction in cell death
- Effect on cisplatin-induced LDH release ([1]; 24 h, #1-LTL+): significant reduction
- Effect on cisplatin-induced LDH release ([1]; 24 h, #2-LTL+): less pronounced
- Effect on cisplatin-induced LDH release ([1]; 48 h, #1-LTL+ PToC): no difference among all conditions
- Effect on cisplatin-induced LDH release ([1]; 48 h, #2-LTL+ PToC): notable reduction

SMILES: Nc1ncnc2c1ncn2CCOCP(=O)(O)O [adefovir]
- Basal to apical (b → a) transport (Papp) in #1-LTL+ versus other PToC models (OAT1): notably higher

SMILES: C=C[C@H]1C[N@@]2CC[C@H]1C[C@@H]2[C@@H](O)c1ccnc2ccc(OC)cc12 [quinidine]
- Basal to apical (b → a) transport rate compared with RPTEC (P-gp): less basal to apical (b → a) transport rate

SMILES: CN(C)C(=O)CCSC(SCCC(=O)O)c1cccc(/C=C/c2ccc3ccc(Cl)cc3n2)c1 (stereo not drawn) [MK571]
- Effect on OAT1 excretion of PAH (MRPs [2]): significant impairment
- Effect on OAT1 excretion of adefovir (MRPs [2]): significant impairment
- Effect on OAT3 transport of rosuvastatin (MRPs [2]): no substantial effect
- Fluorescein transcellular transport (MRPs [3]): reduction
- Intracellular fluorescein accumulation (fluorescence intensity) (MRPs [3]): notable increase

SMILES: O=C1OC2(c3ccc(O)cc3Oc3cc(O)ccc32)c2ccccc21 [fluorescein]
- Transcellular transport of fluorescein in #2-LTL+ PToC relative to #1-LTL+ PToC (OAT1/3 [4]): 10%
- Fluorescein uptake of #2-LTL+ PToC relative to #1-LTL+ PToC (OAT1/3 [5]): approximately 60%
- Fluorescein uptake compared to RPTEC (OAT1/3 [5]; #1-LTL+ and #2-LTL+ PToC, absence of probenecid): significantly higher fluorescein uptake
